Reference: US10703756B2, “Pyrrolo[2,3-D]pyrimidinyl, pyrrolo[2,3-B]pyrazinyl, pyrrolo[2,3-B]pyridinyl acrylamides and epoxides thereof” (Pfizer Inc., priority 2015, dated 2020)

Tests used:
[1] = target: T1, JAK3 enzyme (Homo sapiens, UniProt P52333); test: JAK Caliper Enzyme Assay at 4 μM ATP; type: biochemical
T1 sequence (P52333 1-1124): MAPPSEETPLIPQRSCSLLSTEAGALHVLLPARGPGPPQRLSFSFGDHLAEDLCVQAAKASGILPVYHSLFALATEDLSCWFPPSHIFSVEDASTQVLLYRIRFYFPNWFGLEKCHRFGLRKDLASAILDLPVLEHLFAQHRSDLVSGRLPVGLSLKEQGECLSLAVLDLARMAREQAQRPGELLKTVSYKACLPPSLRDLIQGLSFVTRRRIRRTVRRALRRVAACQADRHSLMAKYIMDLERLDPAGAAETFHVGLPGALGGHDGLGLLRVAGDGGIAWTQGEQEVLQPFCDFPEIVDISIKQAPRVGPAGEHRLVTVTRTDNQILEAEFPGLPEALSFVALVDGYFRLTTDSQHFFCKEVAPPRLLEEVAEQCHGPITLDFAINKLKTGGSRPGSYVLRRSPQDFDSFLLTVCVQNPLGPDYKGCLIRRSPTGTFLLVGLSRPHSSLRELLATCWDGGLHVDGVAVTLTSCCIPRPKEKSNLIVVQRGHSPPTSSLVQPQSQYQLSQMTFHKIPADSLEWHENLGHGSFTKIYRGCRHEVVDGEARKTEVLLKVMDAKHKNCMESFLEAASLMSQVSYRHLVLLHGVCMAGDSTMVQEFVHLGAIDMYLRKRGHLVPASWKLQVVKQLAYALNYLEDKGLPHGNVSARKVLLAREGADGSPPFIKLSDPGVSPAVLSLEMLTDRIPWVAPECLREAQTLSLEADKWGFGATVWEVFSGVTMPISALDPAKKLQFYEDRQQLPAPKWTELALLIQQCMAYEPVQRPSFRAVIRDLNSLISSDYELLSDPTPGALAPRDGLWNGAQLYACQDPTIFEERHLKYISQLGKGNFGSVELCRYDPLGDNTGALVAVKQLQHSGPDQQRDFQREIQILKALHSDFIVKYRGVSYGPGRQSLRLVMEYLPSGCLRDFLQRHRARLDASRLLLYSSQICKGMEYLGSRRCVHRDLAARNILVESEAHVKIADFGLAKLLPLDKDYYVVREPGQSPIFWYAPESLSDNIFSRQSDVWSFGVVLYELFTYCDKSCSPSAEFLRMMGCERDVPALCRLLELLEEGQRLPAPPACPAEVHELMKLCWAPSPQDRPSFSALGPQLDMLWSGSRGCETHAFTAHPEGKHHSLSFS
Procedure: (§1) Test article was solubilized in dimethyl sulfoxide (DMSO) to a stock concentration of 30 mM. An 11-point half log dilution series was created in DMSO with a top concentration of 600 μM. […] Test article and assay controls were added to a 384-well plate. […] Enzyme concentrations and incubation times were optimized for each new enzyme preps and were modified slightly over time to ensure 20%-30% phosphorylation. […] The assay plates were placed on a Caliper Life Science Lab Chip 3000 (LC3000) instrument, and each well was sampled using appropriate separation conditions to measure the unphosphorylated and phosphorylated peptide.

[2] = target: T1, JAK3 enzyme; test: JAK Caliper Enzyme Assay at 1 mM ATP; type: biochemical
Procedure: as §1

| Structure (SMILES) | IC50 [1] [nM] | IC50 [2] [nM] |
| --- | --- | --- |
| C=CC(=O)N1CCN(c2cnc3[nH]cc(C(=O)NC(CO)c4cccc(F)c4)c3n2)CC1(C)C (racemic) [Example 136, Racemic-2-(4-acryloyl-3,3-dimethylpiperazin-1-yl)-N-[1-(3-fluorophenyl)-2-hydroxyethyl]-5H-pyrrolo[2,3-b]pyrazine-7-carboxamide] | 5.82 | 632 |
| C=CC(=O)N1CCC(Oc2cnc3[nH]cc(-c4ncn(C)n4)c3n2)CC1 [Example 126, 1-(4-{[7-(1-Methyl-1H-1,2,4-triazol-3-yl)-5H-pyrrolo[2,3-b]pyrazin-2-yl]oxy}piperidin-1-yl)prop-2-en-1-one] | 14.9 | 3530 |
| C=CC(=O)N1CCC(Oc2cnc3[nH]cc(C#N)c3n2)CC1 [Example 114, 2-[(1-Acryloylpiperidin-4-yl)oxy]-5H-pyrrolo[2,3-b]pyrazine-7-carbonitrile] | 19.7 | 3810 |
| C=CC(=O)N1C[C@H](Nc2cnc3[nH]cc(C(=O)NCC)c3n2)[C@H](C2CC2)C1 [Example 261, 2-{[(3R,4R)-1-acryloyl-4-cyclopropylpyrrolidin-3-yl]amino}-N-ethyl-5H-pyrrolo[2,3-b]pyrazine-7-carboxamide] | 259 | > 10000 |
| C=CC(=O)N1CCN(c2cnc3[nH]cc(C(=O)NC(CO)CCCC)c3n2)CC1(C)C (racemic) [Example 155, Racemic-2-(4-acryloyl-3,3-dimethylpiperazin-1-yl)-N-(1-hydroxyhexan-2-yl)-5H-pyrrolo[2,3-b]pyrazine-7-carboxamide] | 4.92 | 721 |
| C=CC(=O)N1CC(Nc2cnc3[nH]cc(C(=O)NCCC(F)(F)F)c3n2)C2(CC2)C1 (centres unmarked) [Example 252, 2-[(5-acryloyl-5-azaspiro[2.4]hept-7-yl)amino]-N-(3,3,3-trifluoropropyl)-5H-pyrrolo[2,3-b]pyrazine-7-carboxamide] | 110 | > 10000 |
| C=CC(=O)N1CCC(Nc2cnc3[nH]cc(C(=O)N[C@@H]4C[C@H]4C(F)(F)F)c3n2)CC1C (mixture of isomers) [Example 337, Racemic-2-[(1-acryloyl-2-methylpiperidin-4-yl)amino]-N-[(1R,2R)-2-(trifluoromethyl)cyclopropyl]-5H-pyrrolo[2,3-b]pyrazine-7-carboxamide] | 14.4 | 1840 |
| C=CC(=O)N1C[C@H](Nc2ncnc3[nH]ccc23)CC[C@@H]1COC (single isomer, unassigned) [Example 92] | 20.9 | 2440 |
| C=CC(=O)N1CCN(c2cnc3[nH]cc(C(=O)N[C@@H]4C[C@H]4C(F)(F)F)c3n2)CC1 [Example 287, 2-(4-acryloylpiperazin-1-yl)-N-[(1R,2R)-2-(trifluoromethyl)cyclopropyl]-5H-pyrrolo[2,3-b]pyrazine-7-carboxamide] | 2.71 | 499 |
| C=CC(=O)N1C[C@@H](Nc2ncnc3[nH]ccc23)CC[C@H]1COC (single isomer, unassigned) [Example 93] | 711 | > 3160 |
| C=CC(=O)N1CC[C@@H](Oc2cnc3[nH]cc(C(=O)N[C@@H](C)COC)c3n2)C1 [Example 53, 2-{[(3R)-1-acryloylpyrrolidin-3-yl]oxy}-N-[(2S)-1-methoxypropan-2-yl]-5H-pyrrolo[2,3-b]pyrazine-7-carboxamide] | 31.2 | 4000 |
| C=CC(=O)N1CCN(c2cnc3[nH]cc(C(=O)N[C@@H]4CCO[C@H]4C)c3n2)CC1(C)C [Example 160, 3-({[2-(4-acryloyl-3,3-dimethylpiperazin-1-yl)-5H-pyrrolo[2,3-b]pyrazin-7-yl]carbonyl}amino)-2,5-anhydro-1,3,4-trideoxy-D-erythro-pentitol] | 4.33 | 463 |
| C=CC(=O)N1C[C@H](C2CC2)[C@H](Nc2cnc3[nH]cc(C(=O)NCC)c3n2)C1 [Example 238, 2-{[(3S,4S)-1-acryloyl-4-cyclopropylpyrrolidin-3-yl]amino}-N-ethyl-5H-pyrrolo[2,3-b]pyrazine-7-carboxamide] | 9.48 | 1360 |
| C=CC(=O)N1CCN(c2cnc3[nH]cc(C(=O)N[C@@H]4COC[C@@H]4n4cc(F)cn4)c3n2)CC1(C)C [Example 159, 2-(4-acryloyl-3,3-dimethylpiperazin-1-yl)-N-[(3S,4R)-4-(4-fluoro-1H-pyrazol-1-yl)tetrahydrofuran-3-yl]-5H-pyrrolo[2,3-b]pyrazine-7-carboxamide] | 6.31 | 865 |
| C=CC(=O)N1CC(Nc2cnc3[nH]cc(C(=O)NCCCC(F)(F)F)c3n2)C2(CC2)C1 (centres unmarked) [Example 249, 2-[(5-acryloyl-5-azaspiro[2.4]hept-7-yl)amino]-N-(4,4,4-trifluorobulyl)-5H-pyrrolo[2,3-b]pyrazine-7-carboxamide] | 75.3 | > 10000 |
| C=CC(=O)N1CCC(Oc2cnc3[nH]cc(C(=O)N[C@H]4CC[C@@H](F)C4)c3c2)CC1 [Example 344, 5-[(1-acryloylpiperidin-4-yl)oxy]-N-[(1S,3R)-3-fluorocyclopentyl]-1H-pyrrolo[2,3-b]pyridine-3-carboxamide] | 26.7 | 2540 |
| C=CC(=O)N1C[C@H](Nc2cnc3[nH]cc(C(=O)NCCOC)c3n2)C[C@H]1COCC [Example 233, 2-{[(3R,5S)-1-acryloyl-5-(ethoxymethyl)pyrrolidin-3-yl]amino}-N-(2-methoxyethyl)-5H-pyrrolo[2,3-b]pyrazine-7-carboxamide] | 6.79 | 1100 |
| C=CC(=O)N1C[C@@H](CC)[C@@H](Nc2cnc3[nH]cc(C(=O)NCCOC)c3n2)C1 [Example 257, 2-{[(3R,4R)-1-acryloyl-4-ethylpyrrolidin-3-yl]amino}-N-(2-methoxyethyl)-5H-pyrrolo[2,3-b]pyrazine-7-carboxamide] | 55.3 | 6460 |
| C=CC(=O)N1C[C@H](C)[C@H](Nc2cnc3[nH]cc(C(=O)NCCOC)c3n2)C1 [Example 264, 2-{[(3S,4S)-1-acryloyl-4-methylpyrrolidin-3-yl]amino}-N-(2-methoxyethyl)-5H-pyrrolo[2,3-b]pyrazine-7-carboxamide] | 2.41 | 479 |
| C=CC(=O)N1C[C@H](Nc2cnc3[nH]cc(C(=O)NCC)c3n2)[C@@](C)(C#N)C1 [Example 240, 2-{[(3R,4S)-1-acryloyl-4-cyano-4-methylpyrrolidin-3-yl]amino}-N-ethyl-5H-pyrrolo[2,3-b]pyrazine-7-carboxamide] | 10.9 | 4060 |
| C=CC(=O)N1CC[C@H](OC)[C@H](Nc2cnc3[nH]cc(C(=O)N[C@H](C)COC)c3n2)C1 (single isomer, unassigned) [Example 6] | 10.1 | 1320 |
| C=CC(=O)N1CCN(c2cnc3[nH]cc(C(=O)N[C@@H](CO)c4ccc(F)cc4)c3n2)CC1(C)C [Example 146, 2-(4-acryloyl-3,3-dimethylpiperazin-1-yl)-N-[(1R)-1-(4-fluorophenyl)-2-hydroxyethyl]-5H-pyrrolo[2,3-b]pyrazine-7-carboxamide] | 12.2 | 1370 |
| C=CC(=O)N1CCN(c2cnc3[nH]cc(C(=O)NC4COCc5ccccc54)c3n2)CC1(C)C (racemic) [Example 144, Racemic-2-(4-acryloyl-3,3-dimethylpiperazin-1-yl)-N-(3,4-dihydro-1H-isochromen-4-yl)-5H-pyrrolo[2,3-b]pyrazine-7-carboxamide] | 3.32 | 430 |
| C=CC(=O)N1C[C@H](Nc2cnc3[nH]cc(C(=O)NCC)c3n2)C[C@H]1COCC [Example 250, 2-{[(3R,5S)-1-acryloyl-5-(ethoxymethyl)pyrrolidin-3-yl]amino}-N-ethyl-5H-pyrrolo[2,3-b]pyrazine-7-carboxamide] | 4.31 | 798 |
| C=CC(=O)N1CCN(c2cnc3[nH]cc(C(=O)N[C@H](CO)[C@@H](C)CC)c3n2)CC1(C)C [Example 145, 2-(4-acryloyl-3,3-dimethylpiperazin-1-yl)-N-[(2S,3S)-1-hydroxy-3-methylpentan-2-yl]-5H-pyrrolo[2,3-b]pyrazine-7-carboxamide] | 18.4 | 1930 |
